# Patent publication US20150057180A1, “Methods and Kits for Analyzing Biomarkers in a Signal Transduction Pathway” (BioScale, Inc., priority 2012, published 2015)
# Entries after “also recorded” stand apart in the source; their conditions may differ.
# Assays:
# pMEK1 [1] = assay: AMMP pMEK1 assay, A431 cells
# Excerpt: (§1) AMMP Assay Design: These studies were designed using AMMP® (Acoustic Membrane Microparticle Assay) as run on the ViBE® workstation (BioScale). Assays were constructed so that strepavidin coated magnetic microparticles were loaded with analyte-specific biotinylated antibody and the solution phase sandwich partner antibody was conjugated with fluorescein. The complex of bead-analyte and fluorescien-labeled antibody was detected by the anti-fluorescein antibody-coated acoustic membrane of the VIBE.
# (§2) Assay Set-Up: Cell lysates were thawed on ice then centrifuged at 14,000 RPM. Forty microliters of diluted cell lysates were pipetted in to the appropriate well of each plate with forty microliters of sample diluent. Also to each well, a total of forty microliters of a mixture of 1.5×10^5 magnetic beads and 200 ng/ml of fluorescein labeled detector antibody were added. Separate wells were loaded with beads and lysates alone to serve as negative controls. The plates were loaded on the VIBE workstation (BioScale Inc., Lexington, Mass.) and incubated for 4 hours prior to analysis.
# pERK1/2 [2] = assay: AMMP pERK1/2 assay, MCF-7 cells; conditions: for EGF stimulated phosphorylation of ERK1/2: inhibitor (Afatinib 13 nM, Gefitinib 37 nM or Neratinib 92 nM) 2 hours prior to EGF 100 ng/ml 10 minutes
# Excerpt: as §1, §2
# pp38 [3] = assay: AMMP pp38 assay, MCF-7 cells
# Procedure: (§3) TPER was supplemented with phosphatase and protease inhibitors (ThermoFisher/Pierce) as described by the manufacturer. The cells were lysed by pipetting the TPER on the adhesion cell layer, or onto the cell pellet in the case of Jurkat cells. Cell lysates were collected into conical tubes, placed on ice, and vortexed every 5 minutes for a total of 20 minutes before aliquoting and freezing on dry ice. A standard BCA protein assay was used to determine total protein concentration of the lysates.
# as §1
# (§4) Assay Set-Up: Cell lysates were thawed on ice then centrifuged at 14,000 RPM. Forty microliters of diluted cell lysates were pipetted in to the appropriate well of each plate with forty microliters of sample diluent. Also to each well, a total of forty microliters of a mixture of 1.5×10^5 magnetic beads and 200 ng/ml of fluorescein labeled detector antibody were added. […]
# pHER3 [4] = assay: AMMP pHER3 assay, MCF-7 cells
# Procedure: as §3, §1, §2
# pERK1/2 [5] = assay: AMMP pERK1/2 assay, A431 cells
# Excerpt: as §1, §2
# pMEK1 [6] = assay: AMMP pMEK1 assay, MCF-7 cells
# Excerpt: as §1, §2
# pAKT1 [7] = assay: AMMP pAKT1 assay, MCF-7 cells
# Procedure: as §3, §1, §4
# phosphorylated p38 = assay: AMMP phospho-p38 assay, A431 cell lysates (Example 5); format: cell-based, human; conditions: EGF-stimulated A431 cells compared to unstimulated A431 cells (FIG. 38)
# Procedure: For the sample preparation from A431 cells, the following methods were used. Human epidermoid carcinoma cells A431 (American Type Culture Collection (ATCC), Manassas, Va.; ATCC Catalog No. CRL-1555) were grown to approximately 80% confluence in T75 flasks according to standard cell culture techniques. […] Negative control cells were incubated with serum free medium without stimulant, also for 10 minutes.
# Additional scraping was required to release the cells from the plastic. The resulting cell suspension was incubated for approximately 15 minutes on ice with vortexing every five minutes for effective cell lysis. Phosphatase and protease inhibitors (HALT, Thermo Fisher (Pierce)) were included in the detergent cell treatment preparation. Cell lysates were aliquoted and snap frozen on dry ice, and then transferred to a −80° C. freezer until analysis. […]
# Cell lysate samples were prepared for the assays by thawing them on ice then clarifying by centrifugation in a microcentrifuge at 14,000 RPM for 10 minutes. […] Negative controls containing the bead only with the samples (no fluoresceinated antibody) were run and the ViBE response was subtracted from the sample signal readings to determine the specific assay signal.
# pJNK [8] = assay: AMMP pJNK assay, MCF-7 cells; format: cell-based, human; conditions: EGF 100 ng/ml for 10 minutes vs no treatment
# Procedure: as §3, §1, §4
# pJNK [9] = assay: AMMP pJNK assay, A431 cells
# Procedure: as §3, §1, §2
# pHER3 [10] = assay: AMMP pHER3 assay, A431 cells; conditions: for EGF stimulated phosphorylation of HER3: inhibitor (Afatinib 13 nM, Gefitinib 37 nM or Neratinib 92 nM) 2 hours prior to EGF 100 ng/ml 10 minutes
# Excerpt: as §1, §2
# pp38 [11] = assay: AMMP pp38 assay, A431 cells
# Procedure: as §3, §1, §4
# pAKT1 [12] = assay: AMMP pAKT1 assay, A431 cells; conditions: inhibitor (Neratinib 92 nM) 2 hours prior to EGF 100 ng/ml 10 minutes
# Procedure: as §3, §1, §4
# [13] = EGF 100 ng/ml for 10 minutes vs no treatment
# [14] = inhibitor (Afatinib 13 nM, Gefitinib 37 nM or Neratinib 92 nM) 2 hours prior to EGF 100 ng/ml 10 minutes, listed as neratinib
# [15] = inhibitor (Neratinib 92 nM) 2 hours prior to EGF 100 ng/ml 10 minutes
compound,measurement,setting,value
epidermal growth factor [EGF],phosphorylation of MEK1 on EGF stimulation,pMEK1 [1]; [13],Strong phosphorylation of MEK1; also recorded: led to phosphorylation
same,phosphorylation of ERK1/2 on EGF stimulation,pERK1/2 [2]; [13],detected phosphorylation of ERK1/2; also recorded: detected to a lesser degree; also recorded: resulted in phosphorylation
same,phosphorylation of p38 on EGF stimulation,pp38 [3]; [13],moderate phosphorylation of p38
same,phosphorylation of HER3 on EGF stimulation,pHER3 [4]; [13],little phosphorylation was observed; also recorded: resulted in phosphorylation
same,phosphorylation of ERK1/2 on EGF stimulation,pERK1/2 [5]; [13],predominated the signaling pathway; also recorded: easily detected; also recorded: led to phosphorylation
same,phosphorylation of MEK1 on EGF stimulation,pMEK1 [6]; [13],modest phosphorylation of MEK1; also recorded: resulted in phosphorylation
same,phosphorylation of AKT1 on EGF stimulation,pAKT1 [7]; [13],small amount of AKT1 phosphorylation
same,amount of phospho-p38,phosphorylated p38,dramatic increase
same,phosphorylation of JNK on EGF stimulation,pJNK [8],no change in JNK; also recorded: No phosphorylation of JNK
same,phosphorylation of JNK on EGF stimulation,pJNK [9]; [13],no change in JNK; also recorded: No phosphorylation of JNK
same,phosphorylation of HER3 on EGF stimulation,pHER3 [10]; [13],increased with EGF stimulation; also recorded: high even in non-treated A431 cells
same,phosphorylation of p38 on EGF stimulation,pp38 [11]; [13],led to phosphorylation
"COc1cc2ncnc(Nc3ccc(F)c(Cl)c3)c2cc1OCCCN1CCOCC1 [gefitinib, Gefitinib]",EGF stimulated phosphorylation of ERK1/2,pERK1/2 [2],inhibited
CCOc1cc2ncc(C#N)c(Nc3ccc(OCc4ccccn4)c(Cl)c3)c2cc1NC(=O)/C=C/CN(C)C [Neratinib],EGF stimulated phosphorylation of AKT1,pAKT1 [12],largely unaffected
same,EGF stimulated phosphorylation of MEK1,pMEK1 [1]; [14],no such effect; also recorded: much less than expected
same,EGF stimulated phosphorylation of ERK1/2,pERK1/2 [2],inhibitory effects
same,EGF stimulated phosphorylation of p38,pp38 [3]; [15],slight loss in phosphorylation
same,EGF stimulated phosphorylation of HER3,pHER3 [4]; [15],only partially inhibited
same,EGF stimulated phosphorylation of ERK1/2,pERK1/2 [5]; [14],no such effect; also recorded: much less than expected
same,EGF stimulated phosphorylation of MEK1,pMEK1 [6]; [15],inhibitory effects; also recorded: partially inhibited
same,EGF stimulated phosphorylation of AKT1,pAKT1 [7]; [15],slight loss in phosphorylation
same,EGF stimulated phosphorylation of JNK,pJNK [9]; [15],largely unaffected
same,EGF stimulated phosphorylation of HER3,pHER3 [10],largely inhibit
same,EGF stimulated phosphorylation of HER3,pHER3 [10]; listed as neratinib,highly effective
same,EGF stimulated phosphorylation of p38,"pp38 [11]; inhibitor (Afatinib 13 nM, Gefitinib 37 nM or Neratinib 92 nM) 2 hours prior to EGF 100 ng/ml 10 minutes",largely unaffected
